ChEMBL document CHEMBL4118205, “Design, synthesis and biological evaluation of artemisinin derivatives containing fluorine atoms as anticancer agents” (Bioorg Med Chem Lett, 2018)

Key:
U-87 MG [1] = assay: Cytotoxicity against human U87 cells assessed as reduction in cell viability after 72 hrs by MTT assay; format: functional, cell-based, U-87MG ATCC
SH-SY5Y [2] = assay: Cytotoxicity against human SH-SY5Y cells assessed as reduction in cell viability after 72 hrs by MTT assay; format: functional, cell-based
MCF7 [3] = assay: Cytotoxicity against human MCF7 cells assessed as reduction in cell viability after 72 hrs by MTT assay; format: functional, cell-based; settings: MCF7, 72 h
MDA-MB-231 [4] = assay: Cytotoxicity against human MDA-MB-231 cells assessed as reduction in cell viability after 72 hrs by MTT assay; format: functional, cell-based; settings: MDA-MB-231, 72 h
A549 [5] = assay: Cytotoxicity against human A549 cells assessed as reduction in cell viability after 72 hrs by MTT assay; format: functional, cell-based; settings: A549, 72 h
A-375 = assay: Cytotoxicity against human A375 cells assessed as reduction in cell viability after 72 hrs by MTT assay; format: functional, cell-based; settings: A-375, 72 h
L02 [6] = assay: Cytotoxicity against human L02 cells assessed as reduction in cell viability after 72 hrs by MTT assay; format: functional, cell-based; settings: L02, 72 h
U-87 MG [7] = assay: Cytotoxicity against human U87 cells assessed as reduction in cell viability after 24 to 72 hrs by MTT assay; format: functional, cell-based, U-87MG ATCC
SH-SY5Y [8] = assay: Cytotoxicity against human SH-SY5Y cells assessed as reduction in cell viability after 24 to 72 hrs by MTT assay; format: functional, cell-based
MCF7 [9] = assay: Cytotoxicity against human MCF7 cells assessed as reduction in cell viability after 24 to 72 hrs by MTT assay; format: functional, cell-based
MDA-MB-231 [10] = assay: Cytotoxicity against human MDA-MB-231 cells assessed as reduction in cell viability after 24 to 72 hrs by MTT assay; format: functional, cell-based
A549 [11] = assay: Cytotoxicity against human A549 cells assessed as reduction in cell viability after 24 to 72 hrs by MTT assay; format: functional, cell-based
L02 [12] = assay: Cytotoxicity against human L02 cells assessed as reduction in cell viability after 24 to 72 hrs by MTT assay; format: functional, cell-based

Row | SMILES | IC50 (U-87 MG [1]) | IC50 (SH-SY5Y [2]) | IC50 (MCF7 [3]) | IC50 (MDA-MB-231 [4]) | IC50 (A549 [5]) | IC50 (A-375) | IC50 (L02 [6]) | IC50 (U-87 MG [7]) | IC50 (SH-SY5Y [8]) | IC50 (MCF7 [9]) | IC50 (MDA-MB-231 [10]) | IC50 (A549 [11]) | IC50 (L02 [12])
1 | C[C@H]1[C@H](N2CCN(C(=O)Nc3ccc(C(F)(F)F)cc3)CC2)O[C@@H]2O[C@@]3(C)CC[C@H]4[C@H](C)CC[C@@H]1[C@@]24OO3 | 15.2 µM | 3.2 µM | 2.7 µM | 5.8 µM | 21.1 µM | 15 µM | 4 µM |  |  |  |  |  | 
2 | C[C@H]1[C@H](Nc2ccc(SC(F)(F)F)cc2)O[C@@H]2O[C@@]3(C)CC[C@H]4[C@H](C)CC[C@@H]1[C@@]24OO3 | 28 µM | 20.3 µM | 5.3 µM | 22.9 µM | 41.8 µM | 26.5 µM | 9.3 µM |  |  |  |  |  | 
3 | C[C@H]1[C@H](N2CCN(c3ccc(C(F)(F)F)cc3)CC2)O[C@@H]2O[C@@]3(C)CC[C@H]4[C@H](C)CC[C@@H]1[C@@]24OO3 | > 50 µM | > 50 µM | 27 µM | > 50 µM | > 50 µM | 40.9 µM | 20.5 µM |  |  |  |  |  | 
4 | Cn1nnc2c(C(N)=O)ncn2c1=O [TEMOZOLOMIDE] | > 50 µM | > 50 µM |  |  |  |  |  |  |  |  |  |  | 
5 | C[C@H]1[C@H](NCc2ccc(OC(F)(F)F)cc2)O[C@@H]2O[C@@]3(C)CC[C@H]4[C@H](C)CC[C@@H]1[C@@]24OO3 | 17.7 µM | 5 µM | 10.2 µM | 21.8 µM | 17.9 µM | 10.9 µM | 35.7 µM |  |  |  |  |  | 
6 | C[C@H]1[C@H](N2CCN(c3ccc(F)cc3)CC2)O[C@@H]2O[C@@]3(C)CC[C@H]4[C@H](C)CC[C@@H]1[C@@]24OO3 | 25.5 µM | > 50 µM | 28.8 µM | > 50 µM | > 50 µM | > 50 µM | 11.2 µM |  |  |  |  |  | 
7 | C[C@H]1[C@H](N2CCN(C(=O)Nc3ccc(F)cc3)CC2)O[C@@H]2O[C@@]3(C)CC[C@H]4[C@H](C)CC[C@@H]1[C@@]24OO3 | 28.7 µM | 5 µM | 5.5 µM | 10.9 µM | 17.6 µM | 9.1 µM | 15.6 µM |  |  |  |  |  | 
8 | CCOC(=O)N1CCN([C@@H]2O[C@@H]3O[C@@]4(C)CC[C@H]5[C@H](C)CC[C@@H]([C@H]2C)[C@@]35OO4)CC1 |  |  |  |  |  |  |  | > 50 µM | > 50 µM | 15.2 µM | 19.2 µM | 19.9 µM | > 50 µM
9 | C[C@@H]1CC[C@H]2[C@@H](C)C(=O)O[C@@H]3O[C@@]4(C)CC[C@@H]1[C@]32OO4 [ARTEMISININ] | > 50 µM | > 50 µM | > 50 µM | > 50 µM | > 50 µM | > 50 µM | > 50 µM |  |  |  |  |  | 
10 | C[C@H]1[C@@H](O)O[C@@H]2O[C@@]3(C)CC[C@H]4[C@H](C)CC[C@@H]1[C@@]24OO3 [ARTENIMOL] | > 50 µM | > 50 µM | > 50 µM | 45.7 µM | 46.8 µM | 38.5 µM | 34 µM |  |  |  |  |  | 
11 | COc1cccc2c1C(=O)c1c(O)c3c(c(O)c1C2=O)C[C@@](O)(C(=O)CO)C[C@@H]3O[C@H]1C[C@H](N)[C@H](O)[C@H](C)O1 [DOXORUBICIN] |  |  |  | 2.8 µM | 2.3 µM | 0.4 µM | 0.9 µM |  |  |  |  |  | 
12 | C[C@H]1[C@H](N2CCN(Cc3ccc(F)cc3)CC2)O[C@@H]2O[C@@]3(C)CC[C@H]4[C@H](C)CC[C@@H]1[C@@]24OO3 | > 50 µM | 15 µM | 3.5 µM | 12 µM | 35.9 µM | 12.8 µM | 17.1 µM |  |  |  |  |  | 
13 | C[C@H]1[C@H](N2CCN(Cc3cccc(F)c3)CC2)O[C@@H]2O[C@@]3(C)CC[C@H]4[C@H](C)CC[C@@H]1[C@@]24OO3 | > 50 µM | > 50 µM | 6.8 µM | 32.9 µM | 44.4 µM | 46.5 µM | 23.2 µM |  |  |  |  |  | 
14 | C[C@H]1[C@H](N2CCN(c3cccc(C(F)(F)F)c3)CC2)O[C@@H]2O[C@@]3(C)CC[C@H]4[C@H](C)CC[C@@H]1[C@@]24OO3 | > 50 µM | 11.2 µM | 7.5 µM | 12.5 µM | 12.9 µM | 20 µM | 9.1 µM |  |  |  |  |  | 
